Test results: PubChem BioAssay (NCI)
Where “and” joins values, the source holds several entries; their conditions need not be identical. Identical values can stand only once.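 All cell lines were grown in 96-well plates and treated with compound for 48 hours. The concentration for 50% growth inhibition is given as GI50. TGI denotes the concentration required for complete inhibition of growth.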

Experiments:
Assay in all cases: NCI-60 cell line screen, 48 h
A549 NSCLC = tested on: A549 NSCLC
HCT-15 colon = tested on: HCT-15 colon
NCI-H460 lung = tested on: NCI-H460 lung
SK-MEL-5 melanoma = tested on: SK-MEL-5 melanoma
SN12C renal = tested on: SN12C renal
UO-31 renal = tested on: UO-31 renal
ACHN renal = tested on: ACHN renal
HT29 colon = tested on: HT29 colon
SF-268 CNS = tested on: SF-268 CNS
MDA-MB-231 breast = tested on: MDA-MB-231 breast

Row | SMILES | GI50 (A549 NSCLC) | TGI (A549 NSCLC) | GI50 (HCT-15 colon) | TGI (HCT-15 colon) | GI50 (NCI-H460 lung) | TGI (NCI-H460 lung) | GI50 (SK-MEL-5 melanoma) | TGI (SK-MEL-5 melanoma) | GI50 (SN12C renal) | TGI (SN12C renal) | GI50 (UO-31 renal) | TGI (UO-31 renal) | GI50 (ACHN renal) | TGI (ACHN renal) | GI50 (HT29 colon) | TGI (HT29 colon) | GI50 (SF-268 CNS) | TGI (SF-268 CNS) | GI50 (MDA-MB-231 breast) | TGI (MDA-MB-231 breast)
1 | CC(=O)[CH-]C(C)=O.CC(=O)[CH-]C(C)=O.[Cl-].[O]=[V] | 36.3 µM | > 100 µM | 36.8 µM | > 100 µM | 46.2 µM | > 100 µM | 28.4 µM | 70.6 µM | 58.1 µM | > 100 µM | 63.3 µM | > 100 µM |  |  |  |  |  |  |  | 
2 | CCC[CH2][Sn]1([CH2]CCC)[O]CC[S]1 | 2.21 µM | 6.03 µM | 0.799 µM | 2.25 µM | 1.77 µM | 3.72 µM | 0.324 µM | 1.15 µM | 0.818 µM | 2.12 µM | 1.28 µM | 2.54 µM | 1.03 µM | 2.23 µM | 1.27 µM | 2.81 µM | 0.363 µM | 1.44 µM |  | 
3 | C[N+](C)(C)C1CC([N+](C)(C)C)C2c3ccccc3C21 (stereo not given) |  | > 100 µM |  | > 100 µM |  | > 100 µM |  | > 100 µM |  | > 100 µM |  | > 100 µM |  | > 100 µM |  | > 100 µM |  | > 100 µM |  | 
4 | C1C[OH+]CCNCC[OH+]CC[OH+]CCN1.N.[Cl-].[Pt+4] | 51.3 µM | > 100 µM | 40.4 µM | > 100 µM | 93 µM | > 100 µM | 35.5 µM | > 100 µM | > 100 µM | > 100 µM | 20.5 µM | 80 µM | 42 µM | > 100 µM | 43.7 µM | > 100 µM | > 100 µM | > 100 µM |  | 
5 | O=C1c2cc3c(cc2-c2c1c1ccc(F)cc1c(=O)n2C[C@H](O)[C@H](O)[C@H](O)CO)OCO3 |  |  | 0.199 µM | 0.724 µM |  |  | 0.141 µM | 0.277 µM | 0.19 µM | 0.792 µM |  |  |  |  | 0.142 µM | 0.397 µM | 0.0704 µM | 2.97 µM | 0.342 µM | 6.18 µM
6 | O=[N+]([O-])c1ccc(N=Nc2c(Cl)cc(O)cc2Cl)cc1 | 2.88 µM | 11.8 µM | 2.02 µM | 10.3 µM | 1.41 µM | 4.77 µM | 1.48 µM | 3.55 µM | 0.875 µM | 10.3 µM |  |  | 1.01 µM | 11.6 µM | 3.7 µM | 12.6 µM | 1.18 µM | 7.73 µM | 0.7 µM | 4.86 µM
7 | O=[N+]([O-])c1cc(I)cc(/C=N/NS(=O)(=O)c2ccc(Cl)cc2)c1O |  | > 100 µM |  | 38.7 µM |  | 37.4 µM |  | 36.9 µM |  | 49.4 µM |  | 36.8 µM |  | 51.4 µM |  | 48.6 µM |  | 77.4 µM |  | 
8 | COc1c(C)c(OC)c(C(=O)CC(C)C)c(OC)c1C |  | > 100 µM |  | > 100 µM |  |  |  | > 100 µM |  | > 100 µM |  | > 100 µM |  | > 100 µM |  | > 100 µM |  | > 100 µM |  | > 100 µM
9 | CCc1[nH]nc(C(N)=O)c1N=NN(C)C |  | > 100 µM |  | > 100 µM |  |  |  | > 100 µM |  | > 100 µM |  | > 100 µM |  | > 100 µM |  | > 100 µM |  | > 100 µM |  | > 100 µM
10 | O=C(O)CCSC(=O)Nc1cccc2ccccc12 |  | > 100 µM |  | > 100 µM |  | > 100 µM |  | > 100 µM |  | > 100 µM |  | > 100 µM |  | > 100 µM |  | > 100 µM |  | > 100 µM |  | 
11 | Brc1ccc(C=NC23CC4CC(CC(C4)C2)C3)cc1 |  | > 100 µM |  | > 100 µM |  | > 100 µM |  | > 100 µM |  | > 100 µM |  | > 100 µM |  | > 100 µM |  | > 100 µM |  | > 100 µM |  | 
12 | CC[O-].CC[O-].O=C([CH-]C(=O)c1ccccc1)CCCCCCC(=O)[CH-]C(=O)c1ccccc1.[Ti+4] | > 100 µM | > 100 µM | > 100 µM | > 100 µM | > 100 µM | > 100 µM | > 100 µM | > 100 µM | > 100 µM | > 100 µM | > 100 µM | > 100 µM | > 100 µM | > 100 µM | > 100 µM | > 100 µM | > 100 µM | > 100 µM |  | 
13 | CCCCC(OC(=O)c1ccc(N)cc1)C(=O)Nc1nc(CC(=O)OCC)cs1 (stereo not given) | 37.5 µM | > 100 µM | 40.2 µM | > 100 µM |  |  | 17.8 µM | 34.5 µM | 41.6 µM | > 100 µM | 40.9 µM | > 100 µM | 38.8 µM | > 100 µM | 36.7 µM | > 100 µM | 43.5 µM | > 100 µM | 28.1 µM | > 100 µM
14 | C=CCOc1ccc(N)c([N+](=O)[O-])c1 |  | > 100 µM |  | > 100 µM |  |  |  | > 100 µM |  | > 100 µM |  | > 100 µM |  | > 100 µM |  | > 100 µM |  | > 100 µM |  | 
15 | Cc1ccc(/C=N/NS(=O)(=O)c2ccccc2)cc1C |  | > 100 µM |  | > 100 µM |  | > 100 µM |  | > 100 µM |  | > 100 µM |  | > 100 µM |  | > 100 µM |  | > 100 µM |  | > 100 µM |  | 
16 | CC(C)CCCCCCCCCCCCC(=O)NCC(=O)NC1C(C)OC(Nc2ncnc3nc[nH]c23)C(O)C1O (stereo not given) | 0.00324 µM | 0.472 µM and 0.19 µM | 0.573 µM | 3.84 µM |  | 0.00577 µM and < 0.0111 µM |  |  | 0.00548 µM | 0.683 µM | 0.00201 µM |  | 0.00153 µM | 0.00666 µM | 0.00453 µM |  | 0.000965 µM | 0.343 µM |  | 
17 | CCOC(=O)CNC(=O)OCc1ccccc1 |  | > 100 µM |  | > 100 µM |  | > 100 µM |  |  |  | > 100 µM |  | > 100 µM |  | > 100 µM |  | > 100 µM |  | > 100 µM |  | 
18 | O=C1NC2(CCCC2)C2CCCCC12O (stereo not given) |  | > 100 µM |  | > 100 µM |  | > 100 µM |  | > 100 µM |  | > 100 µM |  | > 100 µM |  | > 100 µM |  | > 100 µM |  | > 100 µM |  | 
